Reference: ChEMBL document CHEMBL5634168, “The discovery of an anti-inflammatory monoterpenoid, neoroseoside from the Zea mays” (2024)
Calls of active or inactive are those of the source. The calls are words filed in the database; no cut-off is given here.

Experiments:
RAW264.7 [1] = test: Antiinflammatory activity in LPS induced mouse RAW264.7 cells assessed as inhibition of IL-6 production at 100 ug/ml measured after 24 hrs; assay type: functional; conditions: dose 100 µg/ml
RAW264.7 [2] = test: Antiinflammatory activity in LPS induced mouse RAW264.7 cells assessed as reduction in TNF-alpha production at 100 ug/ml measured after 24 hrs; assay type: functional; conditions: dose 100 µg/ml
Streptococcus sobrinus [3] = test: Antibacterial activity against Streptococcus sobrinus ATCC 33478 assessed as reduction in bacterial growth at 1.25 to 100 ug/ml by broth microdilution method relative to control; assay type: functional; design: scale not given: the % may be the effect or the level left; conditions: dose 1.25-100 µg/ml; at 1.25 to 100 µg/mL
RAW264.7 [4] = test: Antiinflammatory activity in mouse RAW264.7 cells assessed as inhibition of TNF-alpha production; assay type: functional, cell-based; conditions: dose <= 100.0 µg/ml
Streptococcus mutans [5] = test: Antibacterial activity against Streptococcus mutans ATCC 25175 assessed as reduction in bacterial growth at 1.25 to 100 ug/ml by broth microdilution method relative to control; assay type: functional; design: scale not given: the % may be the effect or the level left; conditions: dose 1.25-100 µg/ml; at 1.25 to 100 µg/mL
RAW264.7 [6] = test: Antiinflammatory activity in mouse RAW264.7 cells assessed as inhibition of IL-6 production; assay type: functional, cell-based; conditions: dose <= 100.0 µg/ml
Streptococcus mutans [7] = test: Antibacterial activity against Streptococcus mutans ATCC 25175 assessed as reduction in bacterial growth at 1.25 to 100 ug/ml by broth microdilution method; assay type: functional, organism-based; conditions: dose 1.25-100 µg/ml
Streptococcus sobrinus [8] = test: Antibacterial activity against Streptococcus sobrinus ATCC 33478 assessed as reduction in bacterial growth at 1.25 to 100 ug/ml by broth microdilution method; assay type: functional, organism-based; conditions: dose 1.25-100 µg/ml

| SMILES | Activity (RAW264.7 [1]) [pg/mL] | Activity (RAW264.7 [2]) [pg/mL] | Activity (Streptococcus sobrinus [3]) [%] | Activity (RAW264.7 [4]) | Activity (Streptococcus mutans [5]) [%] | Activity (RAW264.7 [6]) | Activity (Streptococcus mutans [7]) | Activity (Streptococcus sobrinus [8]) |
| --- | --- | --- | --- | --- | --- | --- | --- | --- |
| C[C@@H]1O[C@@H](O[C@H]2[C@@H](O)[C@H](O)[C@@H](C)O[C@H]2c2c(O)cc3oc(-c4ccc(O)c(O)c4)cc(=O)c3c2O)[C@@H](O)[C@H](O)[C@H]1O | 766.6 | 7473.5 | 26 | Dose-Dependent Effect | 24 | Dose-Dependent Effect |  |  |
| C[C@@H](/C=C/[C@@]1(O)C(C(=O)O)=CC(=O)CC1(C)C)O[C@@H]1O[C@H](CO)[C@@H](O)[C@H](O)[C@H]1O | 1570.7 | 9806.7 |  | Dose-Dependent Effect |  | Dose-Dependent Effect | inactive | inactive |
| C[C@H]1O[C@@H](c2c(O[C@@H]3O[C@H](CO)[C@@H](O)[C@H](O)[C@H]3O)cc3oc(-c4ccc(O)c(O)c4)cc(=O)c3c2O)C[C@H](O)[C@H]1O [FAROBIN A] | 1051.8 | 9606 | 26 | Dose-Dependent Effect | 28 | Dose-Dependent Effect |  |  |
